Assay results published in patent EP0845210A1, “New herbicidal compositions” (RHONE-POULENC AGRICULTURE LTD., priority 1994, dated 1996).

System: Amaranthus retroflexus
Assay: Procedure A: pre-emergence glasshouse pot test, growth reduction assessed two weeks after treatment
Assay type: in vivo
Conditions: Table A2
From the text: Seed of the various species of broad-leaf or grass weeds were sown in unsterilised clay loam soil in 7 centimetre by 7 centimetre plastic plant pots. The pots were watered and allowed to drain. The soil surface was then sprayed with ranges of concentrations of either the individual herbicide or mixtures of two herbicides in various proportions, dissolved in a 50:50 by volume solution of acetone and water, using a track sprayer set to deliver the equivalent of 290 l/ha. All herbicides were used as unformulated technical materials except dimethenamid, which was used as the commercial formulation "Frontiere" (trade mark), a flowable containing 900g/l active ingredient; and alachlor, which was used as "Lasso" (trade mark), an emulsifiable concentrate formulation containing 480g/l active ingredient.
Treated pots were placed at random in four replicate blocks per treatment for each plant species. The pots were held, in a glasshouse, standing on moist capillary matting, under lights and with overhead watering twice daily.
Two weeks after treatment the percent reduction in plant growth, compared to an untreated control, was assessed.
Mean percent reduction in plant growth was calculated for each treatment. Dose/mean response was plotted on Log concentration/Probability graph paper, and lines fitted by eye. For herbicide mixtures a dose/response line for the first herbicide was drawn for each dose rate of the second herbicide and a dose/response line for the second herbicide was drawn for each dose rate of the first herbicide. The doses representing a 90% reduction in plant growth (LD90's) were read from these lines and plotted on graphs whose axes were dose rates of the two herbicides. The line joining these points is an Isobole i.e. a line joining points (mixtures) of equal activity, as described by P.M.L. Tammes, Neth. J. Plant Path. 70 (1964) : 73-80. A line was also drawn joining the LD90's of the individual components of the mixture. This line represents the theoretical isobole if the effect of the two components is additive i.e. there is no interaction between them. Isoboles falling below this line indicate synergy between the components while lines lying above it indicate antagonism.
In the tables that follow 'dose' represents the dose rate in grammes per hectare of the active ingredient used; and the figures for the weed control are percentages reduction in growth when compared with the untreated controls.

Structure (SMILES): CS(=O)(=O)c1cc(C(F)(F)F)ccc1C(=O)c1cnoc1C1CC1 [Compound A, 5-cyclopropyl-4-(2-methylsulphonyl-4-trifluoromethyl)benzoylisoxazole]
- percent reduction in plant growth (A 1 g/ha alone): 12.5%
- percent reduction in plant growth (A 2 g/ha alone): 51.25%
- percent reduction in plant growth (A 4 g/ha alone): 12.5%
- percent reduction in plant growth (A 8 g/ha alone): 87.5%
- percent reduction in plant growth (A 16 g/ha alone): 92.5%
- percent reduction in plant growth (A 32 g/ha alone): 99.75%
- percent reduction in plant growth (A 64 g/ha alone): 99.75%
